Legend:
pig ATGL = assay: TAG hydrolase assay, Expi293 lysates expressing ATGL orthologue; format: biochemical; details: NG-497 50 μM
Description: (§1) We previously developed Atglistatin (Ai), a selective inhibitor of mouse ATGL,[31],[32] which is ineffective against human ATGL.[17] Ai acts as a competitive inhibitor targeting the minimal active domain of ATGL ranging from aa 1–254.[33] This domain is highly conserved in different mammalian species (∼90% identity, Table 1) and comprises the patatin-like domain, eponymous for all members of the patatin-like phospholipase domain-containing (PNPLA) protein family.[34] We first investigated the species selectivity of Ai by performing TAG hydrolase assays[35] with lysates from Expi293 cells expressing ATGL orthologues of different species. The activity of ATGL is strongly stimulated by the co-activator protein comparative gene identification-58 (CGI-58, also known as α/β hydrolase domain containing 5, ABHD5)[36] and can be suppressed by the inhibitory protein G0/G1 switch 2 (G0S2).[37] We therefore determined ATGL activity in the presence and absence of mouse CGI-58, mouse G0S2, and Ai. As shown in Figure 1a–i, all ATGL orthologues were expressed, enzymatically active, stimulated by mouse CGI-58, and inactivated by mouse G0S2. Ai inhibited mouse (Figure 1a), rat (Figure 1b), goat (Figure 1c), dog (Figure 1e), and marmoset ATGL (Figure 1f), but not pig (Figure 1d), rhesus monkey (Figure 1g), or human ATGL (Figure 1h).
(§2) Experimental details, materials, and methods
(§3) Expression of recombinant ATGL constructs and preparation of cell lysates. Expi293 cells were cultivated in Expi293 Expression Medium (GIBCO, Thermo Fisher Scientific, Waltham, USA) at standard conditions (37°C, 5% CO2, 95% humidified atmosphere, 125 rpm). DNA constructs containing ATGL from different species and chimeric ATGL variants in pcDNA3.1(+)myc-His C Vector were obtained from BioCat GmbH (Heidelberg, Germany). Cells were transfected with ExpiFectamine293 Transfection Kit (GIBCO) in Opti-Mem reduced serum medium (GIBCO) according to the manufacturer’s instructions. After 48 h, cells were harvested by centrifugation and washed three times with PBS. Cells were disrupted in buffer A (0.25 M sucrose, 1 mM EDTA, 1 mM dithiothreitol, 20µg/ml leupeptin, 2 µg/ml antipain, 1 µg/ml pepstatin, pH 7.0) by sonication (Virsonic 475, Virtis, Gardiner, USA). Nuclei and debris were removed by centrifugation at 1,000 g and 4°C for 10 min. Protein concentrations were determined using Bio-Rad protein assay (Bio-Rad 785, Bio-Rad Laboratories, Munich, Germany) using BSA as standard.
(§4) Expression and purification of mouse CGI-58. CGI-58 was expressed and purified as described 1. In brief, the coding sequence of mouse Cgi-58 was cloned into pHis-Sumo and co-transformed with the plasmid pTf16 expressing the chaperone Tig into E. coli BL21(DE3). Cells were cultured overnight at 37°C and 180 rpm in the presence of 40 µg/ml kanamycin and 34 µg/ml chloramphenicol. Thereafter, cells were transferred into fresh LB medium, grown until OD600 of 0.6, and expression was induced by the addition of 0.5 mM IPTG. After overnight incubation at 30°C, cells were harvested at 4,500 x g and 4°C for 20 min, washed in 1x PBS, and resuspended in lysis buffer (20 mM Tris/HCl pH 7.8, 300 mM NaCl, 30 mM imidazole, 0.1% IGEPAL CA-630, 3.5 mM β-mercaptoethanol, 20 µg/ml leupeptin, 2 µg/ml antipain and 1 µg/ml pepstatin). Cells were incubated with 1 mg/ml lysozyme at 4°C for 20 min, disrupted by sonication, and lysates were centrifuged at 30,000 x g and 4°C for 40 min. His-CGI-58 was purified from the supernatant using an ÄKTA pure system (Cytiva, Uppsala, Sweden) equipped with a 5 ml HisTrap […]
(§5) Expression and purification of mouse G0S2. Chemically competent E. coli ArcticExpress (DE3) cells were transformed with the pST50-SMT3-TEV-mG0S2-His expression plasmid, plated on LB agar plates containing 100 ampicillin, and incubated […] overnight at 37°C. The next day, 10 ml LB medium supplemented with 100 μg/ml ampicillin, 20 μg/ml gentamycin and 2% glucose were inoculated with a single colony and incubated overnight at 37°C. […]

rhesus monkey ATGL = assay: as above; format: biochemical; details: NG-497 50 μM
Description: as §1, §2, §3, §4, §5

Structure (SMILES): CCOc1ccc(-c2cc(OC)cc(C(=O)OC(C)C)n2)cc1 [NG-497]
- reduction in TAG hydrolase activity (pig ATGL): less than 20%
- inhibition of ATGL orthologue (rhesus monkey ATGL): inactivates
